# Target: human LPA1 receptor (Homo sapiens (Human), UniProt Q92633)
# Experiment: Beta-arrestin recruitment assay to determine IC50 values for human LPAR1
# Type: cell-based
# Conditions: antagonist mode, Tango EDG2-bla U2OS cells, LPA 18:1 500 nM final
# Method in brief: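 Antagonist IC50 = concentration giving 50% inhibition of maximal LPA response. Read-out is beta-lactamase reporter activity after arrestin-protease recruitment in U2OS cells bearing LPA1-TEV-Gal4-VP16 construct; cells pre-incubated 20 h, 37 °C, 5% CO2.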
# Chain of human LPA1 receptor (Q92633 whole entry): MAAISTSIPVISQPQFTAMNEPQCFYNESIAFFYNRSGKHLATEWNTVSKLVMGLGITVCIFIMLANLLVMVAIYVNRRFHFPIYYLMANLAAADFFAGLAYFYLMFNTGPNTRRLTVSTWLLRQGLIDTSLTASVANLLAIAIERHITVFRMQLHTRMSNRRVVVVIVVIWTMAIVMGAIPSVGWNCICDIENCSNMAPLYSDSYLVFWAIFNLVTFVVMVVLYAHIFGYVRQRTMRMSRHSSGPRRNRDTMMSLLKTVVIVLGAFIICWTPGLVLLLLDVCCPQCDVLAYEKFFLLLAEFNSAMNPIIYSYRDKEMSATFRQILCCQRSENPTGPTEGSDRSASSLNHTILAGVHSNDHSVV
smiles,measurement,value
"Cc1cnc(NC(=O)C2(c3ccccc3C(C)C)CN(C(=O)CC3(C(=O)O)CCC3)C2)c(OC(F)F)c1 [Ex 79-7, 1-(2-(3-((3-(difluoromethoxy)-5-methylpyridin-2-yl)carbamoyl)-3-(2-isopropylphenyl)azetidin-1-yl)-2-oxoethyl)cyclobutane-1-carboxylic acid]",IC50,61 nM
"Cc1ccc(NC(=O)C2(c3c(C)cccc3C(C)C)CNC2)c(OC(F)F)n1 [Ex 33, N-(2-(difluoromethoxy)-6-methylpyridin-3-yl)-3-(2-isopropyl-6-methylphenyl)azetidine-3-carboxamide]",IC50,33 nM
"CCOC(=O)c1ccnc(N2CC(C(=O)Nc3ccc(C)nc3OC(F)F)(c3ccccc3C(C)C)C2)n1 [Ex 18-14, ethyl 2-(3-((2-(difluoromethoxy)-6-methylpyridin-3-yl)carbamoyl)-3-(2-isopropylphenyl)azetidin-1-yl)pyrimidine-4-carboxylate]",IC50,560 nM
"Cc1ccc(NC(=O)C2(c3ccccc3C(C)C)CN(CCCC(C)(C)O)C2)c(OC(F)F)n1 [Ex 11-66, N-(2-(difluoromethoxy)-6-methylpyridin-3-yl)-1-(4-hydroxy-4-methylpentyl)-3-(2-isopropylphenyl)azetidine-3-carboxamide]",IC50,14 nM
"Cc1ccc(NC(=O)C2(c3ccccc3C(C)C)CN(CC3CCC(C(=O)O)CC3)C2)c(OC(F)F)n1 (stereo not shown) [Ex 41, 4-((3-((2-(difluoromethoxy)-6-methylpyridin-3-yl)carbamoyl)-3-(2-isopropylphenyl)azetidin-1-yl)methyl)cyclohexane-1-carboxylic acid]",IC50,96 nM
"Cc1ccc(NC(=O)C2(c3ccccc3C(C)C)CCN(C(=O)Cc3cc(O)n[nH]3)CC2)c(OC(F)F)n1 [Ex 12-25, N-(2-(difluoromethoxy)-6-methylpyridin-3-yl)-1-(2-(3-hydroxy-1H-pyrazol-5-yl)acetyl)-4-(2-isopropylphenyl)piperidine-4-carboxamide]",IC50,15 nM
"Cc1ccc(NC(=O)C2(c3ccccc3C(C)C)CN(S(=O)(=O)c3[nH]ncc3C(=O)O)C2)c(OC(F)F)n1 [Ex 13-25, 5-((3-((2-(difluoromethoxy)-6-methylpyridin-3-yl)carbamoyl)-3-(2-isopropylphenyl)azetidin-1-yl)sulfonyl)-1H-pyrazole-4-carboxylic acid]",IC50,400 nM
"Cc1ccc(NC(=O)C2(c3ccccc3C(C)C)CN(C(=O)C[C@H](C)C(=O)O)C2)c(OC(F)F)n1 [Ex 12-79, (S)-4-(3-((2-(difluoromethoxy)-6-methylpyridin-3-yl)carbamoyl)-3-(2-isopropylphenyl)azetidin-1-yl)-2-methyl-4-oxobutanoic acid]",IC50,15 nM
"COC(=O)c1cnc(N2CC(C(=O)Nc3ccc(C)nc3OC(F)F)(c3ccccc3C(C)C)C2)nc1 [Ex 18-4, methyl 2-(3-((2-(difluoromethoxy)-6-methylpyridin-3-yl)carbamoyl)-3-(2-isopropylphenyl)azetidin-1-yl)pyrimidine-5-carboxylate]",IC50,31 nM
"CC(=O)N1CC(C(=O)Nc2ccc(C)nc2OC(F)F)(c2ccccc2C(C)C)C1 [Ex 12-2, 1-acetyl-N-(2-(difluoromethoxy)-6-methylpyridin-3-yl)-3-(2-isopropylphenyl)azetidine-3-carboxamide]",IC50,10 nM
"Cc1ccc(NC(=O)C2(c3ccccc3C3CCOCC3)CNC2)c(OC(F)F)n1 [Ex 28, N-(2-(difluoromethoxy)-6-methylpyridin-3-yl)-3-(2-(tetrahydro-2H-pyran-4-yl)phenyl)azetidine-3-carboxamide]",IC50,23 nM
"Cc1ccc(NC(=O)C2(c3ccccc3C(C)C)CN(CCC3(C(=O)O)CCC3)C2)c(OC(F)F)n1 [Ex 11-73, 1-(2-(3-((2-(difluoromethoxy)-6-methylpyridin-3-yl)carbamoyl)-3-(2-isopropylphenyl)azetidin-1-yl)ethyl)cyclobutane-1-carboxylic acid]",IC50,46 nM
"Cc1ccc(NC(=O)C2(c3ccccc3C(C)C)CN(Cc3ccno3)C2)c(OC(F)F)n1 [Ex 11-36, N-(2-(difluoromethoxy)-6-methylpyridin-3-yl)-3-(2-isopropylphenyl)-1-(isoxazol-5-ylmethyl)azetidine-3-carboxamide]",IC50,9 nM
"Cc1ccc(NC(=O)C2(c3ccccc3C(C)C)CN(C[C@@H](O)CNC(=O)CO)C2)c(OC(F)F)n1 [Ex 11-86, (S)-N-(2-(difluoromethoxy)-6-methylpyridin-3-yl)-1-(2-hydroxy-3-(2-hydroxyacetamido)propyl)-3-(2-isopropylphenyl)azetidine-3-carboxamide]",IC50,10 nM
"Cc1ccc(NC(=O)C2(c3ccccc3C(C)C)CCN(C(=O)CN(CCO)C(=O)OC(C)(C)C)CC2)c(OC(F)F)n1 [Ex 12-49, tert-butyl (2-(4-((2-(difluoromethoxy)-6-methylpyridin-3-yl)carbamoyl)-4-(2-isopropylphenyl)piperidin-1-yl)-2-oxoethyl)(2-hydroxyethyl)carbamate]",IC50,30 nM
"CCOC(=O)/C=C\C(=O)N1CC(C(=O)Nc2ccc(C)nc2OC(F)F)(c2ccccc2C(C)C)C1 [Ex 12-76, ethyl (Z)-4-(3-((2-(difluoromethoxy)-6-methylpyridin-3-yl)carbamoyl)-3-(2-isopropylphenyl)azetidin-1-yl)-4-oxobut-2-enoate]",IC50,7 nM
"COC(=O)c1ccc(N2CC(C(=O)Nc3ccc(C)nc3OC(F)F)(c3ccccc3C(C)C)C2)nc1 [Ex 18-1, Methyl 6-(3-((2-(difluoromethoxy)-6-methylpyridin-3-yl)carbamoyl)-3-(2-isopropylphenyl)azetidin-1-yl)nicotinate]",IC50,16 nM
"Cc1ccc(NC(=O)C2(c3ccccc3C(C)C)CN(C(=O)CNC(N)=O)C2)c(OC(F)F)n1 [Ex 12-10, 1-(carbamoylglycyl)-N-(2-(difluoromethoxy)-6-methylpyridin-3-yl)-3-(2-isopropylphenyl)azetidine-3-carboxamide]",IC50,155 nM
"COC(=O)c1cnc(N2CC(C(=O)Nc3ccc(C)nc3OC(F)F)(c3ccccc3C(C)C)C2)cn1 [Ex 18-8, methyl 5-(3-((2-(difluoromethoxy)-6-methylpyridin-3-yl)carbamoyl)-3-(2-isopropylphenyl)azetidin-1-yl)pyrazine-2-carboxylate]",IC50,10 nM
"Cc1ccc(NC(=O)C2(c3ccccc3C(C)C)CN(C(=O)NCC(C)(C)C(=O)O)C2)c(OC(F)F)n1 [Ex 17-17, 3-(3-((2-(difluoromethoxy)-6-methylpyridin-3-yl)carbamoyl)-3-(2-isopropylphenyl)azetidine-1-carboxamido)-2,2-dimethylpropanoic acid]",IC50,12 nM
"Cc1ccc(NC(=O)C2(c3ccccc3C(C)C)CN(CC(C)(C)CO)C2)c(OC(F)F)n1 [Ex 11-17, N-(2-(difluoromethoxy)-6-methylpyridin-3-yl)-1-(3-hydroxy-2,2-dimethylpropyl)-3-(2-isopropylphenyl)azetidine-3-carboxamide]",IC50,48 nM
"CC(C)c1ccccc1C1(C(=O)Nc2cccnc2OC(F)F)CN(c2ncncc2F)C1 [Ex 18-21, N-(2-(difluoromethoxy)pyridin-3-yl)-1-(5-fluoropyrimidin-4-yl)-3-(2-isopropylphenyl)azetidine-3-carboxamide]",IC50,10 nM
"Cc1ccc(NC(=O)C2(c3ccccc3C(C)C)CN(c3cccc(C(=O)O)n3)C2)c(OC(F)F)n1 [Ex 18-3, 6-(3-((2-(difluoromethoxy)-6-methylpyridin-3-yl)carbamoyl)-3-(2-isopropylphenyl)azetidin-1-yl)picolinic acid]",IC50,7 nM
"Cc1ccc(NC(=O)C2(c3ccccc3C(C)C)CN(S(=O)(=O)CC(=O)O)C2)c(OC(F)F)n1 [Ex 13-1, 2-((3-((2-(difluoromethoxy)-6-methylpyridin-3-yl)carbamoyl)-3-(2-isopropylphenyl)azetidin-1-yl)sulfonyl)acetic acid]",IC50,7 nM
"Cc1ccc(NC(=O)C2(c3ccccc3C(C)C)CN(C(=O)CN3CC(O)C3)C2)c(OC(F)F)n1 [Ex 12-53, N-(2-(difluoromethoxy)-6-methylpyridin-3-yl)-1-(2-(3-hydroxyazetidin-1-yl)acetyl)-3-(2-isopropylphenyl)azetidine-3-carboxamide]",IC50,17 nM
"Cc1ccc(NC(=O)C2(c3ccccc3C(C)C)CN(CCC(C)(C)C(N)=O)C2)c(OC(F)F)n1 [Ex 11-93, 1-(4-amino-3,3-dimethyl-4-oxobutyl)-N-(2-(difluoromethoxy)-6-methylpyridin-3-yl)-3-(2-isopropylphenyl)azetidine-3-carboxamide]",IC50,65 nM
"Cc1ccc(NC(=O)C2(c3ccccc3C(C)C)CN(C(=O)CCNCCO)C2)c(OC(F)F)n1 [Ex 12-60, N-(2-(difluoromethoxy)-6-methylpyridin-3-yl)-1-(3-((2-hydroxyethyl)amino)propanoyl)-3-(2-isopropylphenyl)azetidine-3-carboxamide]",IC50,58 nM
"Cc1ccc(NC(=O)C2(c3ccccc3C(C)C)CN(C(=O)C(F)(F)CC(=O)O)C2)c(OC(F)F)n1 [Ex 12-115, 4-(3-((2-(difluoromethoxy)-6-methylpyridin-3-yl)carbamoyl)-3-(2-isopropylphenyl)azetidin-1-yl)-3,3-difluoro-4-oxobutanoic acid]",IC50,7 nM
"CNS(=O)(=O)CC(=O)N1CC(C(=O)Nc2ccc(C)nc2OC(F)F)(c2ccccc2C(C)C)C1 [Ex 12-6, N-(2-(difluoromethoxy)-6-methylpyridin-3-yl)-3-(2-isopropylphenyl)-1-(2-(N-methylsulfamoyl)acetyl)azetidine-3-carboxamide]",IC50,13 nM
"COC(=O)c1cc(N2CC(C(=O)Nc3ccc(C)nc3OC(F)F)(c3ccccc3C(C)C)C2)ncn1 [Ex 18-12, methyl 6-(3-((2-(difluoromethoxy)-6-methylpyridin-3-yl)carbamoyl)-3-(2-isopropylphenyl)azetidin-1-yl)pyrimidine-4-carboxylate]",IC50,11 nM
"COc1ccc(C(C)C)c(C2(C(=O)Nc3ccc(C)nc3OC(F)F)CNC2)c1 [Ex 38, N-(2-(difluoromethoxy)-6-methylpyridin-3-yl)-3-(2-isopropyl-5-methoxyphenyl)azetidine-3-carboxamide]",IC50,287 nM
